Read-outs that look alike come from different tables or passages of the source.
How the values were obtained:
[1] = tested on: PAF-induced aggregation of rabbit blood platelets; experiment: Anti-PAF activity in vitro, inhibition of PAF-induced platelet aggregation; type: cell-based, rabbit (New Zealand hybrids); details: test substance concentration of 10^-5 mole/l, pH 7.4
Text: 4. Determination of Anti-PAF Activity In Vitro
PAF (=Platelet Activating Factor) is a phospholipid mediator which has many effects. Activation of platelet aggregation induces protracted broncho-contraction and hyper-reactivity of the air paths.
In this test the effect of the test substances on platelet aggregation induced by adding PAF to a suspension of platelets obtained from rabbit blood is investigated using the method described by Mikashima et al. (Jap. J. Pharmacol. 44 (1987) 387-391).
A suspension of platelets obtained from rabbit blood containing 4×10^9 platelets/ml in a modified Tyrode buffer solution (=Tyrode solution with 1.3 mM/1 CaCl2 and 2.5 g/l gelatine added) adjusted to pH 7.4 was used. Tyrode solution is an aqueous solution containing 136.9 mmoles NaCl, 2.68 mmoles KCl, 2.31 mmoles CaCl2, 1.0 mmole MgCl2, 11.9 mmoles NaHCO3, 1.45 mmoles NaH2 PO4 and 5.55 mmoles glucose per liter. The platelets were obtained from 10 ml blood samples from each of three rabbits (New Zealand hybrids, body weight 3-4 kg). For this the blood samples were treated with ethylenediamine tetraacetic acid and washed according to the method of Artley et al. (Brit. J. Hematol. 19 (1970), 7-17). […]
To carry out the test 50 μl of the platelet suspension and 10 μl of a 40×10^-5 molar solution of the compound being investigated were added with stirring (1,000 rpm) to 330 μl of the modified Tyrode buffer solution in an aggregation tube provided with a small magnetic stirrer. […] The aggregation occurring in the aggregation tubes was measured over 4-5 minutes with the aid of a computerized aggregometer.
The aggregation which occurred in test tubes containing only platelet suspension was evaluated as 0%, whereas the aggregation which occurred in test tubes containing platelet suspension and PAF preparation was evaluated as 100%. The aggregation which still occurred during the inhibition of the PAF induced platelet aggregation due to the addition of the test substances was measured, and the resulting aggregation inhibition was calculated therefrom in %.

[2] = tested on: cyclooxygenase (6-keto-PGF1α release); experiment: Cyclooxygenase inhibition: 6-keto-PGF1α release from zymosan-stimulated mouse peritoneal macrophage cells; type: cell-based; details: Peritoneal macrophage cell, read-out: In vitro % inhibition upon release of 6-keto-PGF1α
Text: (§1) 5. In vitro Determination of Cyclooxygenase Inhibition and 5-Lipoxygenase Inhibition
(§2) After a cell is activated, arachidonic acid contained in cell membranes is metabolized in two ways. Leucotrienes, inter alia leucotriene C4, are formed due to the action of the enzyme 5-lipoxyqenase (=5-LO), and prostanoids are formed due to the action of the enzyme cyclooxygenase (=CO). In in vitro systems these metabolites are secreted from the cell.
(§3) To evaluate the cyclooxygenase-inhibiting and 5-lipoxygenase-inhibiting properties of the test substances, their inhibitory activity on the biosynthesis of the arachidonic acid derivatives leucotriene C4 (=LTC4) and 6-keto-prostaglandin F1α (=6-keto-PGF1 α) was determined in vitro on mouse peritoneal macrophage cells. For this purpose the LTC4 and 6-keto-PGF1 α contents of a mouse peritoneal macrophage cell culture medium were determined by zymosan stimulation as described by Scott et al. (J. Exp. Med. 152 (1980), 324-335) and by Fradin et al., (Prostaglandins, 33 (1987), 579-589).
(§4) A cell suspension containing peritoneal cells from male mice 8-10 weeks old was obtained in a known manner. A solution marketed under the designation RPMI 1640 (Manufactured by Gibco) was used as the cell culture medium, to which heparin (10 international units/ml) and antibiotics were added according to the procedure of Bonney et al. (Biochem. J. 176 (1978) 422-433). The cell suspension was adjusted to a cell concentration of 10^6 cells per ml and distributed uniformly on titer dishes containing 24 1-ml titer cells (wells). These were kept for two hours in a humidified incubator filled with air enriched with 7% CO2. Cells not adhering to the titer well walls were then removed by washing. The remaining macrophage cells adhering to the walls were incubated for about 12 hours in a suspension medium to which 0.1% of bovine serum albumin (BSA=Bovine Serum Albumin) was added. The suspension medium was then replaced by a Hanks salt solution (=Hanks Balanced Salt Solution=HBSS) with 10 mmoles of Hepes (=hydroxyethylpiperazinoethanesulfonic acid) to which a 0.1% strength solution of the test substances in aqueous, 1% strength dimethylformamide or only the solvent had been added. After 15 minutes the arachidonic acid metabolism was stimulated by adding […] of zymosan (=glycoprotein mixture isolated from cell walls of beer yeast, Saccharomyces cerevisiae, Manufactured by Sigma Chemical Co., Munich) per titre cell. After 2 hours samples of the respective supernatant liquid in each cell were examined for their 6-keto-PGF1α and LTC4 contents by an enzyme immunoassay (=EIA). This EIA is carried out following the method of Pradelles et al. (Analytical Chem. 57 (1985), 1170-1173). The determination of LTC4 and the determination of 6-keto-PGF1α were each carried out on suitable dilutions of the samples (1:50 to 1:250 for the LTC4 determination and 1:250 to 1:1,250 for the 6-keto-PGF1α determination) in comparison with a comparative scale. To determine the inhibiting effect of a 10^-5 molar concentration of the compounds, the amounts of reference eicosanoid were determined, and the inhibiting effect was calculated therefrom in % inhibition compared to the measurements of the zymosan controls.

[3] = tested on: 5-lipoxygenase (LTC4 release); experiment: 5-Lipoxygenase inhibition: LTC4 release from zymosan-stimulated mouse peritoneal macrophage cells; type: cell-based; details: Peritoneal macrophage cell, read-out: In vitro % inhibition upon release of LTC4
Text: as §1, §2, §3, §4

[4] = tested on: mice; experiment: Determination of minimum toxic dose; type: in vivo; details: mouse, per os; lowest dose producing death or severe toxic symptoms, maximum dose 300 mg/kg, 24 hours
Method: 2. Determination of Minimum Toxic Dose
Maximum doses of 300 mg/kg of the test substance were administered orally to male mice weighing 20-25 g. The animals were observed carefully for 3 hours for toxicity symptoms. In addition, all symptoms and deaths were recorded over a period of 24 hours after administration. Associated symptoms were also observed and recorded. If death or severe toxic symptoms were observed, additional mice were administered increasingly lower doses. The lowest dose which produced death or severe toxic symptoms is given in the following Table B as the minimum toxic dose.

[5] = zymosan-stimulated mouse peritoneal macrophage cells, 10^-5 mole/l

| Structure (SMILES) | % inhibition of the PAF-induced aggregation of rabbit blood platelets [1] [%] | inhibition at 10 µM ([2]; Mus musculus) [%] | inhibition at 10 µM ([3]; Mus musculus) [%] | inhibition at 10 µM [2, 5] [%] | inhibition at 10 µM [3, 5] [%] | Minimum toxic dose [4] [mg/kg] |
| --- | --- | --- | --- | --- | --- | --- |
| N#CC1(c2ccccc2)CCN(CCCC2Oc3ccc(Cl)cc3NC2=O)CC1 (stereo not shown) [Example 14] | 57 | 25 | 10 | – | – | – |
| Cc1cc2c(cc1C)SC(CCCCN1CC=C(c3ccccc3)CC1)C(=O)N2 (stereo not shown) [Example 19] | 72 | – | – | 16 | 57 | – |
| O=C1Nc2ccccc2SC1CCCN1CCC(Cc2ccccc2)CC1 (stereo not shown) [Example 21] | 33 | – | – | 11 | 24 | 100 |

— patent US5283243A, “Piperidinoalkylbenzoxazine and piperidinoalkylbenzothiazine compounds, and medicaments containing them” (Kali-Chemie Pharma GmbH, priority 1990, dated 1994)
